For series [1], the system named is AcOH induced Writhing in Mice. Nature of the series: Analgesic activity: (A) writhing syndrome induced by acetic acid. Conditions: Mus musculus, sc, Litchfield-Wilcoxon's method. The series is classed as in vivo, mice of ddY strain. As to the method:
(A) Writhing syndrome induced by acetic acid Six male mice of ddY strain, each weighing between 25 to 30 grams were used in the present experiment. […] Thereafter, the total number of writhings of a group was recorded for 20 minutes, and percent inhibition was calculated in comparison with the control. ED50 was calculated according to Litchfield-Wilcoxon's method.

Series [2] relates to squeak response of mouse to electrical stimulation of the tail root. The series is described as follows: Analgesic activity: (B) electrical stimulation method. The class given is in vivo, mice of ddY strain. Conditions: ip, mice, Weil's method. As to the method: The analgesic activity of the 2-aminomethyl-5-phenyloxazoles was compared with that of aminopyrine.
(B) Electrical stimulation method
Five male mice of ddY strain, each weighing between 25 to 30 grams were used for each group.
Bipolar electrode was placed on the tail root of mouse. The mouse was stimulated with a square wave (5 m sec, 1 Hz), and the minimum voltage of squeak response was measured at 5, 10, 15, 30, 45 and 60 minutes after intraperitoneal administration of the test compound. Positive analgesic response was determined in cases where increase in the minimum voltage was observed. ED50 was calculated according to Weil's method. The acute toxicity values (LD50) of the […] were determined in the following manner: […]

Series [3] relates to carageenin-induced rat paw inflammation. Nature of the series: Anti-inflammatory activity: carrageenin-induced rat paw inflammation (edema), oral. The series is classed as in vivo, rats of Wistar-King strain. To be noted: 3 hours after carrageenin, read-out: Anti-inflammatory Activity (carageenin-induced rat paw inflammation) Percent Inhibition of Swelling; for inhibition in vivo at 25 mg/kg: oral dose 25 mg/kg; for inhibition in vivo at 50 mg/kg: oral dose 50 mg/kg; for inhibition in vivo at 100 mg/kg: oral dose 100 mg/kg; for inhibition in vivo at 12.5 mg/kg: oral dose 12.5 mg/kg. Here is the method:
The anti-inflammatory activity of the 2-aminomethyl-5-phenyloxazoles was compared with that of aminopyrine.
Eight male rats of Wistar-King strain, each weighing between 120 to 150 grams, were used for each group. The hind paw of the rats was injected subcutaneously with 0.1 ml of 1% carrageenin suspension. The volume of the paw was measured plethysmographically 3 hours after the injection, and the difference in volume between the edematous foot and the normal foot was regarded as the degree of edema. Each percent inhibition was calculated in comparison with the control. The test compounds were administered orally 30 minutes before the injection of carrageenin.
Background: In the carrageenan paw model, swelling and tenderness develop within hours.

Series [4] in a line: Acute toxicity (LD50), mortality observed for 168 hours. Conditions: mouse, in vivo, ip. Here is the method:
Bipolar electrode was placed on the tail root of mouse. The mouse was stimulated with a square wave (5 m sec, 1 Hz), and the minimum voltage of squeak response was measured at 5, 10, 15, 30, 45 and 60 minutes after intraperitoneal administration of the test compound. Positive analgesic response was determined in cases where increase in the minimum voltage was observed. ED50 was calculated according to Weil's method. The acute toxicity values (LD50) of the 2-aminoethyl-5-phenyloxazoles were determined in the following manner:
LD50 was calculated according to Weil's method.

Setting [5] is: mice, mortality for 168 hours, Weil's method.

Like-named read-outs stand apart in the source and are kept apart here.

Compound `CNCc1ncc(-c2ccccc2)o1` yielded a median effective dose (ED50) in series [1] of 10.1 mg/kg. Further, in series [2], the 50% effective dose (ED50) was 32 mg/kg. Moreover, in series [3], the inhibition in vivo at 25 mg/kg is 5%, the inhibition in vivo at 50 mg/kg came to 40% and the inhibition in vivo at 100 mg/kg was determined as 48%. In addition, in series [4] (read-out: LD50 in Mice), the LD50 at 168 h turned out to be 238 mg/kg.

Compound `CCNCc1ncc(-c2ccc(Cl)cc2)o1` showed an ED50 in series [1] of 1.9 mg/kg. In series [2], this compound returned an ED50 of 35 mg/kg. Moreover, in series [3], the inhibition in vivo at 12.5 mg/kg stood at 16%, the inhibition in vivo at 25 mg/kg amounted to 43%, the inhibition in vivo at 50 mg/kg came to 65% and the inhibition in vivo at 100 mg/kg stood at 60%. In addition, the LD50 at 168 h in series [4] (read-out: LD50 in Mice) turned out to be 283 mg/kg.

In the case of `CN(C)Cc1ncc(-c2ccc(Cl)cc2)o1`, the ED50 in series [1] amounted to 78 mg/kg; in series [2], 77 mg/kg. The inhibition in vivo at 100 mg/kg in series [3] turned out to be 7%. Besides, the 50% lethal dose (LD50) at 168 h in series [4] (read-out: LD50 in Mice) was 336 mg/kg.

In the case of `CNCc1ncc(-c2ccc(Cl)cc2)o1`, the results for the 50% effective dose (ED50) in series [1] and in series [2] were 22 mg/kg and 46 mg/kg, respectively. The inhibition in vivo at 100 mg/kg in series [3] was found to be 17%. Also, the LD50 at 168 h in series [4] (read-out: LD50 in Mice) turned out to be 141 mg/kg.

Compound `NCc1ncc(-c2ccc(Cl)cc2)o1` gave an ED50 in series [1] of 6 mg/kg. In addition, the ED50 in series [2] was 50 mg/kg. In addition, in series [3], the inhibition in vivo at 25 mg/kg stood at 25%, the inhibition in vivo at 50 mg/kg amounted to 29% and the inhibition in vivo at 100 mg/kg turned out to be 65%. Further, the 50% lethal dose (LD50) at 168 h in series [4] (read-out: LD50 in Mice) is 476 mg/kg.

Regarding `CCNCc1ncc(-c2ccccc2)o1`, it took a dose of 21.4 mg/kg to reach the 50% effect level in series [2] (ED50). In series [3], the inhibition in vivo at 50 mg/kg was found to be 23% and the inhibition in vivo at 100 mg/kg was 47%. In addition, the LD50 at 168 h in series [4] (read-out: LD50 in Mice) was 141 mg/kg.

As to `CNCc1ncc(-c2ccc(F)cc2)o1`, in series [3], the inhibition in vivo at 50 mg/kg was found to be 38% and the inhibition in vivo at 100 mg/kg came to 55%. Moreover, in series [4] (setting [5]), the LD50 at 168 h was found to be 141 mg/kg.

As to `NCc1ncc(-c2ccccc2Cl)o1`, in series [3], the inhibition in vivo at 25 mg/kg was determined as 28%, the inhibition in vivo at 50 mg/kg was 58% and the inhibition in vivo at 100 mg/kg was 42%. In series [4] (setting [5]), this compound gave a median lethal dose (LD50) at 168 h of 283 mg/kg.

On to `CNCc1ncc(-c2cccc(Cl)c2)o1`, for which the inhibition in vivo at 100 mg/kg in series [3] is 21%. The LD50 at 168 h in series [4] (setting [5]) was 283 mg/kg.

Regarding `CNCc1ncc(-c2ccccc2Cl)o1`, the inhibition in vivo at 100 mg/kg in series [3] is 14%. In addition, the median lethal dose (LD50) at 168 h in series [4] (setting [5]) was found to be 141 mg/kg.

Take `CCNCc1ncc(-c2ccccc2Cl)o1`: the 50% effective dose (ED50) in series [2] is 54 mg/kg. In addition, in series [3], the inhibition in vivo at 100 mg/kg worked out at 14%. Besides, the 50% lethal dose (LD50) at 168 h in series [4] (read-out: LD50 in Mice) was found to be 141 mg/kg.

Turning to `CCNCc1ncc(-c2ccc(Br)cc2)o1`, the inhibition in vivo at 100 mg/kg in series [3] amounted to 22%. In series [4] (setting [5]), this compound showed a 50% lethal dose (LD50) at 168 h of 168 mg/kg.

On to `CCNCc1ncc(-c2ccc(Cl)c(Cl)c2)o1`, for which, in series [3], the inhibition in vivo at 25 mg/kg was 27%, the inhibition in vivo at 50 mg/kg came to 56% and the inhibition in vivo at 100 mg/kg was 68%. This compound also registered an LD50 at 168 h in series [4] (setting [5]) of 141 mg/kg.

On to `CCCNCc1ncc(-c2ccc(Cl)cc2)o1`, for which it took a dose of 47 mg/kg to reach the 50% effect level in series [2] (ED50). For the same compound, in series [3], the inhibition in vivo at 50 mg/kg amounted to 24% and the inhibition in vivo at 100 mg/kg turned out to be 38%. The median lethal dose (LD50) at 168 h in series [4] (read-out: LD50 in Mice) worked out at 566 mg/kg.

`CCCNCc1ncc(-c2cccc(Cl)c2)o1`: in series [3], the inhibition in vivo at 50 mg/kg came out at 4% and the inhibition in vivo at 100 mg/kg came to 32%. For the same compound, in series [4] (setting [5]), the median lethal dose (LD50) at 168 h turned out to be 283 mg/kg.

`CCCNCc1ncc(-c2ccc(F)cc2)o1` registered an ED50 in series [2] of 54 mg/kg. Besides, in series [3], the inhibition in vivo at 50 mg/kg is 45% and the inhibition in vivo at 100 mg/kg stood at 53%. Moreover, in series [4] (read-out: LD50 in Mice), the LD50 at 168 h worked out at 238 mg/kg.

In the case of `CCN(CC)Cc1ncc(-c2ccc(Cl)cc2)o1`, in series [3], the inhibition in vivo at 50 mg/kg was 24% and the inhibition in vivo at 100 mg/kg is 44%. Also, the 50% lethal dose (LD50) at 168 h in series [4] (setting [5]) is 238 mg/kg.

Regarding `OCCN1CCN(Cc2ncc(-c3ccc(Cl)c(Cl)c3)o2)CC1`, the inhibition in vivo at 100 mg/kg in series [3] was determined as 14%. In series [4] (setting [5]), this compound registered a median lethal dose (LD50) at 168 h of 141 mg/kg.

For the compound `OCCN1CCN(Cc2ncc(-c3ccccc3)o2)CC1`, in series [3], the inhibition in vivo at 100 mg/kg worked out at 6%. In series [4] (setting [5]), this compound had an LD50 at 168 h of 283 mg/kg.

Take `OCCN1CCN(Cc2ncc(-c3ccc(F)cc3)o2)CC1`: in series [3], the inhibition in vivo at 50 mg/kg is 8% and the inhibition in vivo at 100 mg/kg stood at 54%. The LD50 at 168 h in series [4] (setting [5]) was determined as 336 mg/kg.

Turning to `OCCN1CCN(Cc2ncc(-c3ccc(Cl)cc3)o2)CC1`, it took a dose of 16 mg/kg to reach the 50% effect level in series [1] (ED50). For the same compound, it took a dose of 30.8 mg/kg to reach the 50% effect level in series [2] (ED50). Moreover, in series [3], the inhibition in vivo at 12.5 mg/kg worked out at 6%, the inhibition in vivo at 25 mg/kg amounted to 27%, the inhibition in vivo at 50 mg/kg came to 57% and the inhibition in vivo at 100 mg/kg amounted to 50%. For the same compound, the LD50 at 168 h in series [4] (read-out: LD50 in Mice) came to 283 mg/kg.

`Cc1c(N(C)C)c(=O)n(-c2ccccc2)n1C` [Aminopyrine, reference compound] registered an ED50 in series [1] of 37 mg/kg. The compound also came in with a 50% effective dose (ED50) in series [2] of 96 mg/kg. In addition, in series [3], the inhibition in vivo at 12.5 mg/kg turned out to be 9%, the inhibition in vivo at 25 mg/kg is 23%, the inhibition in vivo at 50 mg/kg is 47% and the inhibition in vivo at 100 mg/kg amounted to 65%. In series [4] (setting [5]), this compound displayed an LD50 at 168 h of 270 mg/kg.

As usually defined, the ED50 is the dose at which the effect has come halfway, by size or by number of responders. A high value points to a need for a large dose. In general, LD50 refers to the dose expected to kill half of the subjects tested.
